Experimental data as given in US8207209B2, “Methods of inhibiting viral infection” (priority 2007, dated 2012).
“Also recorded” adds a separate entry of the source.

How the values were obtained:
cowpox virus [1] = assay type: cell-based
Ebola virus [2] = tested on: Ebola virus; parameters: species or system mice; settings: mouse, in vivo
Marburg virus [3] = tested on: Marburg virus; parameters: species or system mice; settings: mouse, in vivo
Ebola virus [4] = assay: microbe, parasite or virus in culture; assay type: cell-based
Marburg virus [5] = assay: organism not typed; assay type: cell-based
Hepatitis C Virus = assay type: cell-based
Lassa Fever Virus = assay type: cell-based
West Nile Virus = assay type: cell-based
[6] = tested on: Paramyxoviruses including Parainfluenza and Respiratory Syncitial Virus; assay type: cell-based
Caspase 1 = Caspase 1 (Homo sapiens, UniProt P29466); assay type: biochemical
Caspase 2 = Caspase 2 (Homo sapiens, UniProt P42575); assay type: biochemical
Caspase 3 = Caspase 3 (Homo sapiens, UniProt P42574); assay type: biochemical
Caspase 8 = Caspase 8 (Homo sapiens, UniProt Q14790); assay type: biochemical
Caspase 4 = Caspase 4 (Homo sapiens, UniProt P49662); assay: Caspase inhibition; assay type: biochemical
Caspase 9 = Caspase 9 (Homo sapiens, UniProt P55211); assay type: biochemical
Caspase 10 = Caspase 10 (Homo sapiens, UniProt Q92851); assay: Caspase inhibition; assay type: biochemical
Influenza = assay type: cell-based, influenza virus
PRRS virus = assay type: cell-based
Bovine Corona virus = assay type: cell-based
Dengue serotypes = assay type: cell-based, Dengue virus
Hepatitis B virus (HBV) = assay: Hepatitis B virus cell based assay; settings: dose response
[7] = mouse, in vivo
[8] = mouse, in vivo, ip
in vivo = settings: mouse, ip, 10 mg/kg
[9] = Serum concentration of 723 in guinea pigs; settings: guinea pig
[10] = In vivo safety/toxicity (LD50) study of 723
wide variety of cells = assay: CC50 cytotoxicity of 723 in a variety of cell types; settings: cell based assays against a wide variety of cells
HIV = HIV infection in MT-4 cells; assay type: cell-based; settings: modest concentrations
Rift Valley Fever Virus = assay type: cell-based
SARS = assay type: cell-based
cowpox virus [11] = tested on: cowpox virus; parameters: species or system mice; settings: mouse, in vivo
PBMC = assay: Cytokine levels in PBMC; settings: 5 uM dose
[12] = Serum levels of 365 in BALB/c mice; settings: 5 mg/kg dose
[13] = Response of mice to doses of 365 (safety)

Caspase 8, sequence (Q14790 217-374 limits assumed, species assumed): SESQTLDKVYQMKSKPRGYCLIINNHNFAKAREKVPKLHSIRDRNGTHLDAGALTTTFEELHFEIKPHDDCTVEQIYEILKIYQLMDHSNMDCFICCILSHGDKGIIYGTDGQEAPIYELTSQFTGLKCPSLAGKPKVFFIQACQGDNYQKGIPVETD
Caspase 8, sequence (Q14790 385-479 limits assumed, species assumed): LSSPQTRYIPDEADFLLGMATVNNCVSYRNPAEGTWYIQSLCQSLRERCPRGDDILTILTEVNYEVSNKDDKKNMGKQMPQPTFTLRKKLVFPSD
Caspase 2, sequence (P42575 170-325 limits assumed, species assumed): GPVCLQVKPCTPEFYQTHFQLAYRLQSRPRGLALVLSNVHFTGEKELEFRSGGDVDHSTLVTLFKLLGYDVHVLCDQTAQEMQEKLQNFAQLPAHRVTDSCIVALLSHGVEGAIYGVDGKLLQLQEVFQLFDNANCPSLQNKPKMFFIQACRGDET
Caspase 2, sequence (P42575 348-452 limits assumed, species assumed): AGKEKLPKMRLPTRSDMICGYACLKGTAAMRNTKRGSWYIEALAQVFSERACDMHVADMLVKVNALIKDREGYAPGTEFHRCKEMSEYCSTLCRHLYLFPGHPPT
Caspase 1, sequence (P29466 120-297 limits assumed, species assumed): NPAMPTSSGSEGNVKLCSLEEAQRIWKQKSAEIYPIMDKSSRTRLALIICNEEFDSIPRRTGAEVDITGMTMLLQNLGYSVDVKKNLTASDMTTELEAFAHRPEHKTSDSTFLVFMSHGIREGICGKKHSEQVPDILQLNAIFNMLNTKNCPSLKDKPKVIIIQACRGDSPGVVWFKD
Caspase 1, sequence (P29466 317-404 limits assumed, species assumed): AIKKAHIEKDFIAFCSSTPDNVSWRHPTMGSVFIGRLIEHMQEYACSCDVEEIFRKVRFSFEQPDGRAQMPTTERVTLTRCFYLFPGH
Caspase 4, sequence (P49662 81-270 limits assumed, species assumed): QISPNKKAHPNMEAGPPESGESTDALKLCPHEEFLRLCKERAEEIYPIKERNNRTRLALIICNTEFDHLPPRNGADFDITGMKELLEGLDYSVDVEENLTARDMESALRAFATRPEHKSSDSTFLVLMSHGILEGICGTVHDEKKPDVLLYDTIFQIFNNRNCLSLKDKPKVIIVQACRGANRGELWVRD
Caspase 4, sequence (P49662 290-377 limits assumed, species assumed): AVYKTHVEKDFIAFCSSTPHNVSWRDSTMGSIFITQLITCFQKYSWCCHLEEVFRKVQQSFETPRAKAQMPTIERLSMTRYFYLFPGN
Caspase 10, sequence (Q92851 220-415 limits assumed): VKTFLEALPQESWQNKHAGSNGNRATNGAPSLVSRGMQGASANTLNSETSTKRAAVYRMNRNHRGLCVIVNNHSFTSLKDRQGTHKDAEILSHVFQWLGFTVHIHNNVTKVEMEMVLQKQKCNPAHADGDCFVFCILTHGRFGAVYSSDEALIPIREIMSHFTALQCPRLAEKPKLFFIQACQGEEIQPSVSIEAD
Caspase 10, sequence (Q92851 416-521 limits assumed): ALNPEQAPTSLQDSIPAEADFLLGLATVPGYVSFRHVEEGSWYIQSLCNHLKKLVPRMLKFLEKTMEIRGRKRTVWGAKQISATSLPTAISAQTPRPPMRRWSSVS
Caspase 3, sequence (P42574 29-175 limits assumed, species assumed): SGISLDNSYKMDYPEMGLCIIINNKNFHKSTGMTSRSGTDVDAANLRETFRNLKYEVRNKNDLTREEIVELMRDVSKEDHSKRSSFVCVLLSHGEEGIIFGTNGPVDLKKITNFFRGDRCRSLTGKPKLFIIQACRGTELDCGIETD
Caspase 3, sequence (P42574 176-277 limits assumed, species assumed): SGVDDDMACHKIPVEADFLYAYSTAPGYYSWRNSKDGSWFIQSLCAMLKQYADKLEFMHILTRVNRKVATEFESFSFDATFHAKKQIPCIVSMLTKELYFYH
Caspase 9, sequence (P55211 1-315 limits assumed, species assumed): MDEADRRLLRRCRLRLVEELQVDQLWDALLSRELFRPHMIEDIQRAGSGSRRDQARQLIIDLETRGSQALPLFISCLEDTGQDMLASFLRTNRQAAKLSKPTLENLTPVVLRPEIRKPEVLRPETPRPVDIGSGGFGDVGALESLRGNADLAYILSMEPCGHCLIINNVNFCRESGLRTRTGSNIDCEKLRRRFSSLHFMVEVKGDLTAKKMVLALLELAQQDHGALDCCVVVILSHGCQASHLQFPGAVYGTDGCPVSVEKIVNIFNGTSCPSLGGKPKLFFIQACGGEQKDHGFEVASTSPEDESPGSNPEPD
Caspase 9, sequence (P55211 331-416 limits assumed, species assumed): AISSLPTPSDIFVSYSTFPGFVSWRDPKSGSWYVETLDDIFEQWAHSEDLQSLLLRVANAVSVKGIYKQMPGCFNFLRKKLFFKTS

SMILES: N=C(N)c1ccc(-c2ccc(-c3ccc(C(=N)N)cc3)s2)cc1 [Compound 510, benzenecarboxylmidamide,4,4′-(2,5-thiphenediyl)bis]
- EC50 (cowpox virus [1]): ~250 nM
- protection against Ebola virus, therapeutic (Ebola virus [2]): provided protection
- protection against lethal challenge (Ebola virus [2]): 100%
- protection, measured in terms of survival (Marburg virus [3]): 100%
- inhibition measured in terms of cell survival (Ebola virus [4]): 100%
- inhibition measured in terms of cell survival (Marburg virus [5]): 100%
- HCV viral titers (Hepatitis C Virus): zero
- inhibition of Lassa Fever Virus (Lassa Fever Virus): effective
- inhibition of West Nile Virus (West Nile Virus): 100%
- protection against Paramyxovirus challenge [6]: effective
- inhibition of Caspase 1 (Caspase 1): elevated inhibition; also recorded: to some degree
- inhibition of Caspase 2 (Caspase 2): elevated inhibition; also recorded: selective inhibition
- inhibition of Caspase 3 (Caspase 3): selective inhibition
- inhibition of Caspase 8 (Caspase 8): elevated inhibition; also recorded: selective inhibition
- inhibition of Caspase 4 (Caspase 4): not
- inhibition of Caspase 9 (Caspase 9): not
- inhibition of Caspase 10 (Caspase 10): not

SMILES: N=C(N)c1ccc2oc(C=Cc3nc4ccc(C(=N)N)cc4[nH]3)cc2c1 [Compound 723, 2-[2-(5-carbamimidoyl-benzofuran-2-yl)-vinyl]-3H-benzoimidazole-5-carboxamidine]
- effectiveness against Influenza infection (Influenza): comparatively poorly
- effectiveness in inhibiting PRRS (PRRS virus): showed effectiveness
- effectiveness against Bovine Corona virus (Bovine Corona virus): effective
- protection on challenged mice (Ebola virus [2]): 90%
- survival (Ebola virus [2]): 25%
- treated animals survived (Ebola virus [2]): 100%
- protection, measured in terms of survival (Marburg virus [3]): 100%
- infection inhibition (Ebola virus [4]): 100%
- EC50 (Ebola virus [4]; Zaire ebolavirus): ≤ 50 nM
- EC50 (Marburg virus [5]): ≤ 50 nM
- infection inhibition (Marburg virus [5]): 100%
- effectiveness against Dengue serotypes (Dengue serotypes): effective
- protection against Paramyxovirus challenge [6]: effective in conferring a great degree of protection
- effectiveness in treating HBV (reduction in viral copies) (Hepatitis B virus (HBV)): effectiveness, at nanomolar levels
- t1/2 in mammalian models [7]: two-four
- concentrations in the liver and kidney [8]: high
- concentrations in the spleen and the heart [8]: relatively low
- half-life (in vivo): 2 h
- half-life [9]: 4 h
- lethal dose ([10]; administered on day zero): 200 mg/kg
- impact of dosing on weight over time ([10]; below 200 mg/kg): little or no impact
- dose at which compound is well tolerated ([10]; in vivo): up to 100 mg/kg
- CC50 (wide variety of cells): well above safety thresholds

SMILES: Cc1cc(NCCCN(C)C)c2ccc3c(ccc4c(NCCCN(C)C)cc(C)nc43)c2n1.Cl.Cl.Cl.Cl [Compound 365, Quino[8,7-h]quinoline-1,7-diamine,N,N′-bis[3-(dimethylamino)propyl]-3,9-dimethyl-tetrahydrochloride]
- effectiveness against Influenza infection (Influenza): effective
- EC100 (PRRS virus): 3.2 µM
- effectiveness in inhibiting PRRS (PRRS virus): showed effectiveness
- effectiveness against Bovine Corona virus (Bovine Corona virus): effective; also recorded: inhibited
- inhibition of Ebola virus (Ebola virus [4]): 100%
- suppression of Marburg Virus (Marburg virus [5]): suppressed
- inhibition of HCV (luciferase signal) (Hepatitis C Virus): complete inhibition
- effectiveness against Dengue serotypes (Dengue serotypes): effective
- inhibition of HIV (HIV): 100%
- EC50 (Rift Valley Fever Virus): 370 nM
- inhibition of Rift Valley Fever Virus (zero viral particle release) (Rift Valley Fever Virus): 100%
- inhibition of Lassa Fever Virus (Lassa Fever Virus): suppressed
- inhibition of SARS (SARS): inhibited
- survival outcomes (cowpox virus [11]): did not ultimately improve survival outcomes
- survival times (cowpox virus [11]): uniformly extend survival times
- cytokine levels relative to agent-free vehicle (PBMC): not substantially different
- time course of serum concentration [12]: leaves the serum relatively rapidly
- dose at which all animals survived [13]: up to 25 mg/kg
- weight after administration ([13]; up to 25 mg/kg): not significantly impacted
